Measured values: US7749491B2, “Compounds and methods to enhance rAAV transduction” (priority 2003, dated 2010)

How the values were obtained:
HeLa cells = assay: AAV2 FLAG-Luc transduction of HeLa cells (luciferase screen of agents); assay type: cell-based; settings: for increase of transduction efficiency: MOI of 100, 2 hours infection, at the doses tested; for relative potency of anthracyclines: 0.6, 3 and 6 μg/mL
Source text: A. To screen for agents that enhance rAAV transduction, any number of cells can be used. A range of concentrations of the agent to be tested can be determined based on, for instance desirable profiles of the agent, desirable toxicity profiles of the agent and/or concentration of the agents employed in vivo. The usefulness of the cell type chosen for the screen can be confirmed by testing compounds, e.g., proteosome inhibitors described in Example 1 such as LLnL and ZLL which are known to increase rAAV transduction. For example, a AAV2 FLAG-Luc vector was employed to transduce HeLa, ferret fibroblasts, IB3 and Huh (liver) cells in the presence or absence of the proteosome inhibitor MG132. MG132 was confirmed to enhance AAV transduction in all cell types tested: HeLa cell transduction was enhanced about 500-fold at 80 μM, and 200-fold at 40 μM, MG132; ferret fibroblast cell transduction was enhanced about 200-fold at 20 μM, and 17-fold at 4 μM, MG132; IB3-1 cell transduction was enhanced about 30 to 70-fold at 20 to 80 μM MG132; and Huh-7 cell transduction was enhanced about 15-fold at 20 to 80 μM MG132. There was no difference in rAAV transduction efficiency in HeLa cells when either DMSO or ETOH was used as a vehicle for MG132. B. HeLa cells were selected to screen for additional agents that enhance rAAV transduction, although any cell strain or line; or primary cells, may be employed. […] The range of concentrations of the agents to be tested were selected based on solubility profiles, toxicity profiles and/or concentrations previously employed in vivo.
HeLa cells were infected for 2 hours with an MOI of 100 rAAV in the presence of agents, e.g., ritonavir (Norvir) (1, 10 and 100 μM), cyclosporin A (2.5, 25 and 250 μg/ml), epoxomicin (1, 10 and 50 μM), alcacinomycin A (5, 50 or 500 μM), chymostatin (1, 10 and 100 μM), bestatin (1, 10 and 100 μM), doxorubicin (adriamycin) (0.1, 1 and 10 μM), camptothecin (camptosar) (1, 10 and 100 μM), eicosapentanoic acid (1, 10 and 100 μM), tannic acid (2, 20, 200 and 2000 μM), simvastatin, prodrug (2, 20 and 200 μM), cisplatin (0.2, 2 and 20 μg/mL), and chloroquine (4, 40 and 400 μM). Forty-eight hours after infection, cells were harvested for analysis. rAAV transduction was measured by removing the media from the cell cultures, adding 100 μL reporter lysis buffer (RLB) and freezing. The supernatant was thawed and transferred to microfuge tubes, freeze thawed an additional 2 times, clarified by centrifugation for 10 minutes and then analyzed for reporter gene expression on the luminometer. Protein was determined by Bradford analysis and results were expressed as relative light units per mg protein (RLU/mg).
Based on results with doxorubicin, a small number of FDA approved anthracyclines were tested for their relative in vitro and in vivo activities on AAV transduction. HeLa cells were infected with 100 ppc AAV2FLAG-Luc for 2 hours in the presence of different anthracyclines, e.g., doxorubicin, daunarubicin (Cerubidine), epirubicin (Ellence™), and idarubicin (Idamycin®), and cells harvested 48 hours later. The anthracyclines were pharmaceutical grade, and prepared according to the manufacturer's instructions. Prior to use, the agents were diluted in sterile water to an equal mass, e.g., 0.6 μg/mL, 3 μg/mL and 6 μg/mL. For example, 3 μg/mL idamycin increased luciferase expression by over 5000-fold while doxorubin increased luciferase expression by 58-fold. Generally, the potency was as follows: idarubicin>daunarubicin>epirubicin>doxorubicin.

[1] = system: polarized human bronchial epithelial cells; assay type: cell-based; settings: for rAAV transduction from the apical surface: apical infection, data not shown; for rAAV transduction from the basolateral surface with ubiquitin ligase inhibitors: both inhibitors combined, 2 mM pretreatment 60 minutes, then 0.2 mM
Protocol: Primary culture of human bronchial epithelia and reagents utilized. Primary human airway epithelial cells were collected by enzymatic digestion of bronchial samples from lung transplants, as previously described (Kondo et al., 1991; Zabner et al., 1996). Isolated primary airway cells were seeded at a density of 5×10^5 cells/cm^2 onto collagen-coated Millicell-HA culture inserts (Millipore Corp., Bedford, Mass.). Primary cultures were grown at the air-liquid interface for more than 2 weeks, by which time differentiation into a mucociliary epithelium occurs. The culture medium, used to feed only the basolateral side of the cells, contained 49% DMEM, 49% Ham's F12 and 2% Ultraser G (BioSepra, Cedex, France). Dimethyl Sulphoxide (DMSO), camptothecin (Camp), etoposide (Etop), aphidicolin (Aphi), hydroxyurea (HU) and genistein (Geni) were purchased from Sigma (St. Louis, Mo.). Tripeptidyl aldehyde proteasome inhibitors N-Acetyl-L-Leucyl-L-Leucyl-Norleucine (LLnL) and benzyloxycarbonyl-L-leucyl-L-leucyl-L-leucinal (Z-LLL) were purchased from Calbiochem-Novabiochem Corporation (La Jolla, Calif.). Ubiquitin ligase (E3) inhibitors were obtained from Bachem Bioscience Inc. (King of Prussia, Pa.). Anti-AAV capsid monoclonal antibody (Anti-VP1, 2 and 3) was purchased from American Research Products (Belmont, Mass.) and anti-ubiquitin antibody was purchased from Santa Cruz Biotechnology Inc. (Santa Cruz, Calif.).
Transduction of polarized airway epithelial cells and primary human fibroblasts. rAAV infection of fully differentiated bronchial cells was performed as described in Duan et al. (1998). For infections from the apical surface of the airway cells, 5 μl rAAV was mixed with 50 μl of culture media and applied directly onto the apical compartment of Millicell inserts (MOI=10,000 particles/cell). During apical infection, the basolateral side of the Millicell was continuously bathed in culture media. Gene transfer to the basal side was performed by inverting Millicell inserts and applying viral vector to the bottom of the supporting filter membrane in a 50 μl volume for 2 hours. Subsequently, Millicell inserts were returned to the upright position, in the continued presence of the original viral inoculum plus an additional 450 μl of media. For both apical and basolateral infections, rAAV containing media was removed after 24 hours and replaced with either fresh culture media (for the basal side) or exposed to air (for the apical side). To test the effect of different agents on the efficiency of AAV transduction in polarized airway cells, 1 μl of each solution was mixed with AAV prior to infection of airway epithelia. Agents were usually presented during the 24 hours AAV infection period unless indicated otherwise. Most of the agents were dissolved in DMSO except for hydroxyurea (dissolved in phosphate buffered saline), H-Leu-Ala-OH (dissolved in 0.9% glacial acetic acid) and H-His-Ala-OH (dissolved in 50% methanol). The working concentrations of the agents were as follows: 0.1 μM camptothecin, 10 μM etoposide, 5 μg/ml aphidicolin, 40 mM hydroxyurea, 50 μM genistein, 40 μM LLnL and 4 μM Z-LLL. When the ubiquitin ligase (E3) inhibitors (H-Leu-Ala-OH and H-His-Ala-OH) were used, airway cells were pretreated with a combination of both inhibitors at a final concentration of 2 mM for 60 minutes prior to infection, followed by the continued presence of inhibitor (0.2 mM) during the entire 24 hours infection period from the basolateral surface. Studies involving EGTA treatment were performed by transiently treating the apical membrane of polarized airway epithelia with 3 mM EGTA in water for 10 minutes (Duan et al., 1998). Following hypotonic EGTA treatment, cultures were washed twice with culture medium and infected with rAAV in the presence or absence of 40 μM LLnL. Human primary fibroblast cells (P4) were maintained in 10% fetal bovine serum (FBS), 1% penicillin and streptomycin, and 89% DMEM. […]

## CC[C@H](C)C(=O)O[C@H]1C[C@@H](C)C=C2C=C[C@H](C)[C@H](CC[C@@H]3C[C@@H](O)CC(=O)O3)[C@H]21 [lovastatin]
HeLa cells; HeLa screen
  outcome in cell line screening: negative results

## CC[C@@]1(O)C(=O)OCc2c1cc1n(c2=O)Cc2cc3ccccc3nc2-1 [camptothecin]
[1]
  rAAV transduction from the apical surface: none of these agents facilitated rAAV transduction from the apical surface
HeLa cells; harvested 48 hours
  increase of transduction efficiency: 15 fold

## COc1cccc2c1C(=O)c1c(O)c3c(c(O)c1C2=O)C[C@@](O)(C(C)=O)C[C@@H]3O[C@H]1C[C@H](N)[C@H](O)[C@H](C)O1 [daunarubicin]
HeLa cells
  relative potency of anthracyclines: idarubicin>daunarubicin>epirubicin>doxorubicin

## H-Leu-Ala-OH
[1]
  rAAV transduction from the basolateral surface with ubiquitin ligase inhibitors: enhanced rAAV transduction from the basolateral surface

## CC(=O)[C@]1(O)Cc2c(O)c3c(c(O)c2[C@@H](O[C@H]2C[C@H](N)[C@H](O)[C@H](C)O2)C1)C(=O)c1ccccc1C3=O [idamycin, idarubicin]
HeLa cells; 3 μg/mL, 100 ppc AAV2FLAG-Luc 2 hours, harvested 48 hours
  increase of luciferase expression: over 5000 fold
HeLa cells
  relative potency of anthracyclines: idarubicin>daunarubicin>epirubicin>doxorubicin

## CCC(C)(C)C(=O)O[C@H]1C[C@@H](C)C=C2C=C[C@H](C)[C@H](CC[C@@H]3C[C@@H](O)CC(=O)O3)[C@H]21 [simvastatin]
HeLa cells; harvested 48 hours
  increase of transduction efficiency: 4 fold

## COc1cc([C@@H]2c3cc4c(cc3[C@@H](O[C@@H]3O[C@@H]5CO[C@@H](C)O[C@H]5[C@H](O)[C@H]3O)[C@H]3COC(=O)[C@H]23)OCO4)cc(OC)c1O [etoposide]
[1]
  rAAV transduction from the apical surface: none of these agents facilitated rAAV transduction from the apical surface

## CC[C@H](C)[C@H](NC(=O)[C@H]([C@@H](C)CC)N(C)C(C)=O)C(=O)N[C@H](C(=O)N[C@@H](CC(C)C)C(=O)[C@@]1(C)CO1)[C@@H](C)O [epoxomicin]
HeLa cells; harvested 48 hours
  increase of transduction efficiency: ≤ 120 fold

## O=C(OC[C@H]1O[C@@H](OC(=O)c2cc(O)c(O)c(OC(=O)c3cc(O)c(O)c(O)c3)c2)[C@H](OC(=O)c2cc(O)c(O)c(OC(=O)c3cc(O)c(O)c(O)c3)c2)[C@@H](OC(=O)c2cc(O)c(O)c(OC(=O)c3cc(O)c(O)c(O)c3)c2)[C@@H]1OC(=O)c1cc(O)c(O)c(OC(=O)c2cc(O)c(O)c(O)c2)c1)c1cc(O)c(O)c(OC(=O)c2cc(O)c(O)c(O)c2)c1 [tannic acid]
HeLa cells; harvested 48 hours
  increase of transduction efficiency: 17 fold

## N.N.[Cl][Pt][Cl] [cisplatin]
HeLa cells; harvested 48 hours
  increase of transduction efficiency: 16 fold

## H-His-Ala-OH
[1]
  rAAV transduction from the basolateral surface with ubiquitin ligase inhibitors: enhanced rAAV transduction from the basolateral surface

## O=c1c(-c2ccc(O)cc2)coc2cc(O)cc(O)c12 [genistein]
[1]
  rAAV transduction from the apical surface: none of these agents facilitated rAAV transduction from the apical surface
